Patent US8168801B2, “Imidazolium-type ionic oligomers” (The Royal Institution for the Advancement of …, priority 2007, dated 2012)
Structures can show the parent of a compound that is named as a salt.

Assays:
[1] = Thermal stability by thermogravimetric analysis (TGA); type: physicochemical; details: 25° C. to 550° C. at 20° C./min under nitrogen, then air to 700° C., platinum pan
Description: The thermal stability of the imidazolium-type ionic oligomers was measured by thermogravimetric analysis (TGA).^42 The onset decomposing temperatures (ODTs) and residue percentages (RPs) are summarized hereinbelow in Table 1.
General: All reagents were commercially obtained from Aldrich Chemical Co. and were used without further purification unless otherwise noted. Solvents were of reagent grade and, if necessary, were dried by standard procedures. ^1H NMR, ^13C NMR and COSY NMR spectra were acquired using Varian Mercury 300 MHz, 400 MHz and Unity 500 MHz spectrometers respectively, equipped with Sun workstations. The proton chemical shifts were reported in parts per million on the δ scale, referenced to the residual proton resonance in CDCl3 (δ 7.24 ppm) or D2O (δ 4.67 ppm). The carbon chemical shifts were reported in parts per million on the δ scale, internally referenced to the solvent resonance in CDCl3 (δ 77.0 ppm). The proton and carbon assignments were made by standard gCOSY experiments. Melting points were taken using a standard melting point apparatus without correcting the thermometer. High resolution mass spectrometric analyses were performed on a VG Micromass ZAB 2F HS (FAB) or a Microm as Quattro II triple quadrupole mass spectrometer (Manchester, UK) equipped with an electrospray ionization source (ESI). Typically only the ion corresponding to the cation (C) component was analyzed. Thermogravimetric analysis (TGA) measurements were performed on a TGA Q500 from TA instruments. The running method used was ramped from 25° C. to 550° C., 20° C./min, under nitrogen, switching to air and then ramped at 20° C./min to 700° C. The type of pan used was platinum. High-pressure liquid chromatography (HPLC) analyses were performed using a reverse phase C18 column (Agilent Zorbax Extend-C18). The elution was performed using a linear gradient from 50% to 100% of B in A over 20 min, followed by a linear gradient elution from 100% to 50% of B in A over 10 min, where A is H2O/0.05% TFA (v/v) and B is CH3CN/0.05% TFA (v/v), at a flow rate of 0.8 mL/min. The eluted compounds were detected by UV absorbance at 210 nm. […]

[2] = Moisture affinity (absorption of moisture from the atmosphere); type: physicochemical

In the case of `Cc1n(C)cc[n+]1CCCn1cc[n+](CCCBr)c1C` (as salt: triflate) [Compound 5], the melting point is reported as 76 to 78 °C.

`Cc1n(C)cc[n+]1CCCn1cc[n+](CCCBr)c1C` (as salt: bromide) [Compound 9] showed a melting point of 201 to 203 °C.

For `Cc1nccn1CCC[n+]1ccn(C)c1C` [Compound 3], the “Onset decomposing temperature (ODT)” value [1] was 287.8 °C, the “Residue percentage (RP)” value [1] was 1.53% and the “Absorption of moisture from the atmosphere” value (“Absorption of moisture” for short) [2] was “significantly slower rate than compound 2”.

Work on `Cc1nccn1CCC[n+]1ccn(C)c1C` (as salt: bromide) [Compound 3] yielded a melting point of 159 to 161 °C.

With `Cc1nccn1CCC[n+]1ccn(C)c1C` [Compound 4] the “Onset decomposing temperature (ODT)” value [1] was 293.9 °C, the “Residue percentage (RP)” value [1] was 1.71% and the “Absorption of moisture” value [2] was “significantly slower rate than compound 2”.

`Cc1n(C)cc[n+]1CCCBr` (as salt: bromide) [Compound 2] showed a melting point of 96 to 98 °C.

In the case of `Cc1n(C)cc[n+]1CCCn1cc[n+](CCCBr)c1C` [Compound 10], the “Onset decomposing temperature (ODT)” value [1] is reported as 277.8 °C and the “Residue percentage (RP)” value [1] is reported as 0.50%.

In the case of `Cc1n(C)cc[n+]1CCCBr` [Compound 2], the “Onset decomposing temperature (ODT)” value [1] is reported as 215.8 °C and the “Residue percentage (RP)” value [1] is reported as 0.10%.

With `Cc1nccn1CCC[n+]1ccn(CCC[n+]2ccn(C)c2C)c1C` [Compound 11] the “Onset decomposing temperature (ODT)” value [1] was 326.2 °C, the “Residue percentage (RP)” value [1] was 1.76% and the “Absorption of moisture” value [2] was “did substantially not absorb moisture”. It also gave a melting point of 107 to 109 °C.

In the case of `Cc1nccn1CCC[n+]1ccn(CCC[n+]2ccn(C)c2C)c1C` [Compound 6], the “Onset decomposing temperature (ODT)” value [1] is reported as 329.6 °C, the “Residue percentage (RP)” value [1] is reported as 1.38% and the “Absorption of moisture” value [2] is reported as “did substantially not absorb moisture”. It also gave a melting point of 121 to 123 °C.

`Cc1n(C)cc[n+]1CCCn1cc[n+](CCCBr)c1C` (as salt: triflate) [Compound 10] showed a melting point of 84 to 86 °C.

In the case of `Cc1n(C)cc[n+]1CCCn1cc[n+](CCCBr)c1C` [Compound 5], the “Onset decomposing temperature (ODT)” value [1] is reported as 239.4 °C and the “Residue percentage (RP)” value [1] is reported as 0.59%.

For `Cc1n(C)cc[n+]1CCCn1cc[n+](CCCBr)c1C` [Compound 9], the “Onset decomposing temperature (ODT)” value [1] was 212.2 °C and the “Residue percentage (RP)” value [1] was 1.89%.

In the case of `Cc1nccn1C` [Compound 1, 1,2-dimethylimidazole, reference compound], the “Onset decomposing temperature (ODT)” value [1] is reported as 80.6 °C and the “Residue percentage (RP)” value [1] is reported as 0.18%.

With `Cc1nccn1CCC[n+]1ccn(C)c1C` (as salt: triflate) [Compound 4] the melting point was 120 to 122 °C.
